From PubChem BioAssay AID248 (DTP/NCI, 2004)
“And” between values parts separate entries of the source, which are not always exact repeats. Equal values may be shown once. Toxic doses and inconclusive results are not listed. No stated cut-off is given here; in the data, active means T/C of 150% or more; inactive means T/C below 125%.

Tested on: L1210 leukemia ip in BDF1 mice, survival T/C
Assay: NCI In Vivo Anticancer Drug Screen. Data for tumor model L1210 Leukemia (intraperitoneal) in B6D2F1 (BDF1) mice
Conditions: endpoint: mean survival time, higher = longer survival
In short: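 Survival endpoint. Drug-treated group vs vehicle group, expressed as T divided by C. Tumor passaged by transplantation.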

[1] = dose: 100.0 mg/kg/injection, schedule: Q01DX009 (ip), vehicle: Klucel (hydroxypropylcellulose) (HPC)
[2] = dose: 100.0 mg/kg/injection, schedule: Q04DX003 (ip), vehicle: Klucel (hydroxypropylcellulose) (HPC)
[3] = dose: 200.0 mg/kg/injection, schedule: Q01DX009 (ip), vehicle: Klucel (hydroxypropylcellulose) (HPC)
[4] = dose: 200.0 mg/kg/injection, schedule: Q04DX003 (ip), vehicle: Klucel (hydroxypropylcellulose) (HPC)
[5] = dose: 400.0 mg/kg/injection, schedule: Q04DX003 (ip), vehicle: Klucel (hydroxypropylcellulose) (HPC)
[6] = dose: 100.0 mg/kg/injection, schedule: Q01DX001 (ip), vehicle: saline with Tween-80
[7] = dose: 100.0 mg/kg/injection, schedule: Q01DX009 (ip), vehicle: saline with Tween-80
[8] = dose: 100.0 mg/kg/injection, schedule: Q04DX002 (ip), vehicle: saline with Tween-80
[9] = dose: 100.0 mg/kg/injection, schedule: Q04DX003 (ip), vehicle: saline with Tween-80
[10] = dose: 200.0 mg/kg/injection, schedule: Q01DX001 (ip), vehicle: saline with Tween-80
[11] = dose: 200.0 mg/kg/injection, schedule: Q04DX002 (ip), vehicle: saline with Tween-80
[12] = dose: 200.0 mg/kg/injection, schedule: Q04DX003 (ip), vehicle: saline with Tween-80
[13] = dose: 400.0 mg/kg/injection, schedule: Q04DX002 (ip), vehicle: saline with Tween-80
[14] = dose: 400.0 mg/kg/injection, schedule: Q04DX003 (ip), vehicle: saline with Tween-80
[15] = dose: 50.0 mg/kg/injection, schedule: Q01DX001 (ip), vehicle: saline
[16] = dose: 100.0 mg/kg/injection, schedule: Q01DX001 (ip), vehicle: saline
[17] = dose: 200.0 mg/kg/injection, schedule: Q01DX001 (ip), vehicle: saline
[18] = dose: 400.0 mg/kg/injection, schedule: Q01DX001 (ip), vehicle: saline
[19] = dose: 400.0 mg/kg/injection, schedule: Q01DX009 (ip), vehicle: Klucel (hydroxypropylcellulose) (HPC)
[20] = dose: 100.0 mg/kg/injection, schedule: Q04DX002 (ip), vehicle: Klucel (hydroxypropylcellulose) (HPC)
[21] = dose: 200.0 mg/kg/injection, schedule: Q04DX002 (ip), vehicle: Klucel (hydroxypropylcellulose) (HPC)
[22] = dose: 400.0 mg/kg/injection, schedule: Q04DX002 (ip), vehicle: Klucel (hydroxypropylcellulose) (HPC)

Measured: T/C

COc1ccc(C(=O)NC(=S)Nc2ccccc2F)cc1
inactive: [1] 93 % of control | [2] 94 % of control | [3] 90 % of control | [4] 93 % of control | [5] 94 % of control

C=CCc1ccc(OC(=O)Nc2cc(Cl)ccc2C)c(OC)c1
inactive: [6] 93 % of control | [7] 106 % of control and 87 % of control | [8] 101 % of control and 92 % of control | [9] 103 % of control | [10] 97 % of control | dose: 200.0 mg/kg/injection, schedule: Q01DX009 (ip), vehicle: saline with Tween-80 101 % of control and 87 % of control | [11] 95 % of control and 97 % of control | [12] 101 % of control | dose: 400.0 mg/kg/injection, schedule: Q01DX001 (ip), vehicle: saline with Tween-80 92 % of control | dose: 400.0 mg/kg/injection, schedule: Q01DX009 (ip), vehicle: saline with Tween-80 101 % of control and 102 % of control | [13] 95 % of control and 98 % of control | [14] 101 % of control

CC(=O)N(C)C(C(=O)N1CC(C)CC1C(=O)N(C)C1C(=O)NC(CC(C)C)C(=O)N2CC(C)CC2C(=O)NC(CC(C)C)C(=O)N(C)C(C(C)C)C(=O)N2CCCC2C(=O)N(C)C(CC(C)C)C(=O)NCC(=O)OC1C)C(C)C (centres undefined)
inactive: dose: 18.75 mg/kg/injection, schedule: Q01DX009 (ip), vehicle: Klucel (hydroxypropylcellulose) (HPC) 104 % of control | dose: 37.5 mg/kg/injection, schedule: Q01DX009 (ip), vehicle: Klucel (hydroxypropylcellulose) (HPC) 109 % of control | dose: 75.0 mg/kg/injection, schedule: Q01DX009 (ip), vehicle: Klucel (hydroxypropylcellulose) (HPC) 101 % of control

CC(=O)OCCC(OC(C)=O)c1ccccn1 (centres undefined)
inactive: [15] 100 % of control | [16] 103 % of control | [17] 97 % of control | [18] 103 % of control

CC(=O)CCN1C(=O)c2ccccc2C1=O
inactive: [1] 100 % of control | [2] 101 % of control | [3] 104 % of control | [4] 90 % of control | [19] 97 % of control | [5] 96 % of control

O=C(O)/C(=C\c1ccc(Cl)cc1)c1cccc2ccccc12
inactive: dose: 50.0 mg/kg/injection, schedule: Q04DX003 (ip), vehicle: Klucel (hydroxypropylcellulose) (HPC) 92 % of control | [1] 98 % of control | [3] 100 % of control | [4] 87 % of control

CC(=O)Oc1ccc(OC(C)=O)c2c1C1C=CC2C1
inactive: [16] 103 % of control | [17] 103 % of control | [18] 101 % of control

O=C(CC(O)(C(F)(F)F)C(F)(F)F)c1ccc(F)cc1
inactive: [9] 94 % of control | [12] 92 % of control | [14] 103 % of control

NCC1OC(OC2C(N)CC(N)C(OC3OC(CO)C(O)C(N)C3O)C2O)C(N)CC1O (centres undefined)
inactive: dose: 50.0 mg/kg/injection, schedule: Q04DX002 (ip), vehicle: saline 114 % of control | dose: 100.0 mg/kg/injection, schedule: Q04DX002 (ip), vehicle: saline 103 % of control | dose: 200.0 mg/kg/injection, schedule: Q04DX002 (ip), vehicle: saline 114 % of control

O=C1OC(=O)C23CCC(CC2)C2CCC13CC2
inactive: dose: 100.0 mg/kg/injection, schedule: Q01DX009 (ip), vehicle: saline 97 % of control | dose: 100.0 mg/kg/injection, schedule: Q04DX003 (ip), vehicle: saline 110 % of control | dose: 200.0 mg/kg/injection, schedule: Q01DX009 (ip), vehicle: saline 98 % of control | dose: 200.0 mg/kg/injection, schedule: Q04DX003 (ip), vehicle: saline 110 % of control | dose: 400.0 mg/kg/injection, schedule: Q01DX009 (ip), vehicle: saline 93 % of control | dose: 400.0 mg/kg/injection, schedule: Q04DX003 (ip), vehicle: saline 109 % of control

CCOC(=O)Nc1cc(NCc2ccccc2)c(N)c(N)n1
inactive: [16] 96 % of control | [17] 97 % of control

O=C(Nc1ccc(S(=O)(=O)F)cc1)/C(=C\c1ccc([N+](=O)[O-])cc1)c1cccc(Cl)c1
inactive: [20] 94 % of control | [21] 105 % of control | [22] 105 % of control

CC(=O)n1c2ccccc2c2ccccc21
inactive: dose: 100.0 mg/kg/injection, schedule: Q04DX002 (ip), vehicle: gum acacia 95 % of control | dose: 200.0 mg/kg/injection, schedule: Q04DX002 (ip), vehicle: gum acacia 88 % of control | dose: 400.0 mg/kg/injection, schedule: Q04DX002 (ip), vehicle: gum acacia 100 % of control

CCCCN(CCCC)C(=O)c1[nH]cnc1/N=N\N(C)C
inactive: dose: 50.0 mg/kg/injection, schedule: Q01DX009 (ip), vehicle: saline with Tween-80 117 % of control | [6] 106 % of control | [7] 108 % of control | [10] 118 % of control

Cn1[nH]nnc1=S
inactive: [9] 97 % of control | [12] 112 % of control

NNC(=O)c1ccccc1Nc1ccc(Br)cc1
inactive: [1] 94 % of control | [2] 94 % of control | [3] 93 % of control | [4] 94 % of control | [19] 86 % of control | [5] 96 % of control

CCOP(=O)(OCC)c1cccc(Cl)c1
inactive: dose: 75.0 mg/kg/injection, schedule: Q01DX001 (ip), vehicle: saline 101 % of control

N#C/C=C/C=C/C#N
inactive: dose: 75.0 mg/kg/injection, schedule: Q01DX001 (ip), vehicle: other 98 % of control | dose: 150.0 mg/kg/injection, schedule: Q01DX001 (ip), vehicle: other 103 % of control

CCC(O)(c1ccccc1)c1cnc(C)n1Cc1ccccc1 (centres undefined)
inactive: [6] 100 % of control and 108 % of control | [20] 102 % of control | [8] 93 % of control and 105 % of control | [9] 101 % of control | [10] 107 % of control and 91 % of control | [21] 112 % of control | [11] 88 % of control and 91 % of control | [12] 100 % of control | [13] 88 % of control and 90 % of control

O=C(O)CC(NS(=O)(=O)Cc1ccccc1)C(=O)O (centres undefined)
inactive: dose: 100.0 mg/kg/injection, schedule: Q04DX003 (ip), vehicle: other 94 % of control | dose: 200.0 mg/kg/injection, schedule: Q04DX003 (ip), vehicle: other 92 % of control | dose: 400.0 mg/kg/injection, schedule: Q04DX003 (ip), vehicle: other 92 % of control

CC(O)c1cccc(Br)c1 (centres undefined)
inactive: [8] 100 % of control | [11] 90 % of control | [13] 90 % of control

NC(CS)(CS)C(=O)O
inactive: dose: 15.0 mg/kg/injection, schedule: Q01DX015 (ip), vehicle: carboxymethylcellulose (CMC) 107 % of control | dose: 30.0 mg/kg/injection, schedule: Q01DX015 (ip), vehicle: carboxymethylcellulose (CMC) 113 % of control | dose: 60.0 mg/kg/injection, schedule: Q01DX015 (ip), vehicle: carboxymethylcellulose (CMC) 120 % of control

CCN(CC)CC(=O)NCC(CCCN1CCCCC1)(c1cccc2ccccc12)C(C)C (centres undefined)
inactive: dose: 12.5 mg/kg/injection, schedule: Q01DX009 (ip), vehicle: saline 91 % of control | dose: 12.5 mg/kg/injection, schedule: Q04DX003 (ip), vehicle: saline 98 % of control | dose: 25.0 mg/kg/injection, schedule: Q01DX009 (ip), vehicle: saline 90 % of control | dose: 25.0 mg/kg/injection, schedule: Q04DX003 (ip), vehicle: saline 95 % of control | dose: 50.0 mg/kg/injection, schedule: Q01DX009 (ip), vehicle: saline 86 % of control | dose: 50.0 mg/kg/injection, schedule: Q04DX003 (ip), vehicle: saline 96 % of control

CCN(CC)c1ccc(-c2cc(NS(=O)(=O)c3ccccc3)ccc2NS(=O)(=O)c2ccccc2)cc1
inactive: dose: 100.0 mg/kg/injection, schedule: Q01DX001 (ip), vehicle: Klucel (hydroxypropylcellulose) (HPC) 95 % of control

COC(=O)c1cc(Cl)cc(N)c1Cl
inactive: [20] 98 % of control | [21] 98 % of control | [22] 91 % of control

CC[CH2][Pb]([CH2]CC)([CH2]CC)[O]C(C)=O
inactive: dose: 6.25 mg/kg/injection, schedule: Q04DX003 (ip), vehicle: Klucel (hydroxypropylcellulose) (HPC) 100 % of control | dose: 12.5 mg/kg/injection, schedule: Q04DX003 (ip), vehicle: Klucel (hydroxypropylcellulose) (HPC) 103 % of control | [15] 94 % of control | [16] 94 % of control
